Measured values from patent publication US10689367B2, “Triazole pyridyl compounds as agonists of the APJ receptor” (AMGEN INC., priority 2016, dated 2020).

Each molecule was assayed against human APJ receptor (Homo sapiens (Human), UniProt P35414) (assay: [35S]GTPγS binding assay on membranes from CHO cells stably expressing human APJ receptor). Details: membranes of CHO cells stably expressing human APJ receptor, read-out: Activity hAPJ SPA EC50 IP.
Assay type: biochemical
Outline: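 Agonist EC50 values come from non-linear regression of mean data from several independent runs. Membranes of CHO cells stably expressing human APJ were incubated 90 min at room temperature with [35S]GTPγS in buffer with optimized GDP, MgCl2 and NaCl, then read on a microplate imager.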

Sequence of human APJ receptor (P35414 whole entry): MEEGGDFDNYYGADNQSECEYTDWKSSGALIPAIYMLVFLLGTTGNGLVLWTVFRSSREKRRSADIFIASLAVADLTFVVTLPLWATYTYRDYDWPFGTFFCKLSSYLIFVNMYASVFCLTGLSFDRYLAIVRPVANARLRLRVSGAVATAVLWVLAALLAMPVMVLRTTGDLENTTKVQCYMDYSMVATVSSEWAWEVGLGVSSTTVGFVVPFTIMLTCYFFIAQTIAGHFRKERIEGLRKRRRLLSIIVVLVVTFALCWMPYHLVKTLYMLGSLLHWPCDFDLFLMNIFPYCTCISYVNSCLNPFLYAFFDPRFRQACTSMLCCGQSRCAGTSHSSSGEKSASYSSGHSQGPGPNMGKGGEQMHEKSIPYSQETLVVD

| Structure (SMILES) | EC50 |
| --- | --- |
| COc1cccc(-c2nnc(NS(=O)(=O)[C@@H](C)[C@H](OC)c3ncc(Cl)cn3)n2[C@H](C)c2cncs2)n1 (single isomer, unassigned) [Example 346.0, (1R,2S)-1-(5-chloropyrimidin-2-yl)-1-methoxy-N-(5-(6-methoxypyridin-2-yl)-4-((R)-1-(thiazol-5-yl)ethyl)-4H-1,2,4-triazol-3-yl)propane-2-sulfonamide or (1R,2S)-1-(5-chloropyrimidin-2-yl)-1-methoxy-N-(5-(6-methoxypyridin-2-yl)-4-((S)-1-(thiazol-5-yl)ethyl)-4H-1,2,4-triazol-3-yl)propane-2-sulfonamide] | 4.4 nM |
| COc1cccc(-c2nnc(NS(=O)(=O)[C@@H](C)[C@H](OC)c3ncc(Cl)cn3)n2[C@H](C)c2cncs2)n1 (single isomer, unassigned) [Example 347.0, (1R,2S)-1-(5-chloropyrimidin-2-yl)-1-methoxy-N-(5-(6-methoxypyridin-2-yl)-4-((R)-1-(thiazol-5-yl)ethyl)-4H-1,2,4-triazol-3-yl)propane-2-sulfonamide or (1R,2S)-1-(5-chloropyrimidin-2-yl)-1-methoxy-N-(5-(6-methoxypyridin-2-yl)-4-((S)-1-(thiazol-5-yl)ethyl)-4H-1,2,4-triazol-3-yl)propane-2-sulfonamide] | 0.48 nM |
| COc1cccc(-c2nnc(NS(=O)(=O)[C@@H](C)[C@H](OC)c3ncc(Cl)cn3)n2[C@H](C)c2cncc(F)c2)n1 (single isomer, unassigned) [Example 348.0, (1R,2S)-1-(5-chloropyrimidin-2-yl)-N-(4-((R)-1-(5-fluoropyridin-3-yl)ethyl)-5-(6-methoxypyridin-2-yl)-4H-1,2,4-triazol-3-yl)-1-methoxypropane-2-sulfonamide or (1R,2S)-1-(5-chloropyrimidin-2-yl)-N-(4-((S)-1-(5-fluoropyridin-3-yl)ethyl)-5-(6-methoxypyridin-2-yl)-4H-1,2,4-triazol-3-yl)-1-methoxypropane-2-sulfonamide] | 1.34 nM |
| COc1cccc(-c2nnc(NS(=O)(=O)[C@@H](C)[C@H](OC)c3ncc(Cl)cn3)n2[C@H](C)c2cncc(F)c2)n1 (single isomer, unassigned) [Example 349.0, (1R,2S)-1-(5-chloropyrimidin-2-yl)-N-(4-((R)-1-(5-fluoropyridin-3-yl)ethyl)-5-(6-methoxypyridin-2-yl)-4H-1,2,4-triazol-3-yl)-1-methoxypropane-2-sulfonamide or (1R,2S)-1-(5-chloropyrimidin-2-yl)-N-(4-((S)-1-(5-fluoropyridin-3-yl)ethyl)-5-(6-methoxypyridin-2-yl)-4H-1,2,4-triazol-3-yl)-1-methoxypropane-2-sulfonamide] | 0.43 nM |
| COc1cccc(-c2nnc(NS(=O)(=O)[C@@H](C)[C@H](OC)c3ncc(Cl)cn3)n2[C@H](C)c2cccnc2)n1 (single isomer, unassigned) [Example 350.0, (1R,2S)-1-(5-chloropyrimidin-2-yl)-1-methoxy-N-(5-(6-methoxypyridin-2-yl)-4-((R)-1-(pyridin-3-yl)ethyl)-4H-1,2,4-triazol-3-yl)propane-2-sulfonamide or (1R,2S)-1-(5-chloropyrimidin-2-yl)-1-methoxy-N-(5-(6-methoxypyridin-2-yl)-4-((S)-1-(pyridin-3-yl)ethyl)-4H-1,2,4-triazol-3-yl)propane-2-sulfonamide] | 7.84 nM |
| COc1cccc(-c2nnc(NS(=O)(=O)[C@@H](C)[C@H](OC)c3ncc(Cl)cn3)n2[C@H](C)c2cccnc2)n1 (single isomer, unassigned) [Example 351.0, (1R,2S)-1-(5-chloropyrimidin-2-yl)-1-methoxy-N-(5-(6-methoxypyridin-2-yl)-4-((R)-1-(pyridin-3-yl)ethyl)-4H-1,2,4-triazol-3-yl)propane-2-sulfonamide or (1R,2S)-1-(5-chloropyrimidin-2-yl)-1-methoxy-N-(5-(6-methoxypyridin-2-yl)-4-((S)-1-(pyridin-3-yl)ethyl)-4H-1,2,4-triazol-3-yl)propane-2-sulfonamide] | 0.36 nM |
| COCCn1c(NS(=O)(=O)[C@H](C)[C@@H](C)c2ncc(Cl)cn2)nnc1-c1cccnc1 (stereo in doubt) [Example 18.0, (2R,3S)-3-(5-chloro-2-pyrimidinyl)-N-(4-(2-methoxyethyl)-5-(3-pyridinyl)-4H-1,2,4-triazol-3-yl)-2-butanesulfonamide] | 250 nM |
| COc1cccc(-c2nnc(NS(=O)(=O)[C@@H](C)[C@H](OC)c3ncc(Cl)cn3)n2[C@@H]2CCC23CCC3)n1 (stereo in doubt) [Example 56.0] | 1.9 nM |
| COc1cccc(-c2nnc(NS(=O)(=O)[C@@H](C)[C@H](OC)c3ncc(Cl)cn3)n2[C@H]2CCCC[C@H]2C)n1 (stereo in doubt) [Example 75.0] | 3 nM |
| COc1cccc(-c2nnc(NS(=O)(=O)[C@@H](C)[C@H](C)c3ncc(Cl)cn3)n2CC2COC2)n1 [Example 2.0, (2S,3R)-3-(5-chloro-2-pyrimidinyl)-N-(5-(6-methoxy-2-pyridinyl)-4-(3-oxetanylmethyl)-4H-1,2,4-triazol-3-yl)-2-butanesulfonamide] | > 4200 nM |
| COCCn1c(NS(=O)(=O)[C@@H](C)[C@H](OC)c2ncc(Cl)cn2)nnc1-c1cccc(OC)n1 [Example 3.0, (1R,2S)-1-(5-chloro-2-pyrimidinyl)-1-methoxy-N-(4-(2-methoxyethyl)-5-(6-methoxy-2-pyridinyl)-4H-1,2,4-triazol-3-yl)-2-propanesulfonamide] | 2.8 nM |
| COCC1(n2c(NS(=O)(=O)[C@@H](C)[C@H](OC)c3ncc(Cl)cn3)nnc2-c2cccc(OC)n2)CC1 [Example 4.0] | 0.16 nM |
| COc1cccc(-c2nnc(NS(=O)(=O)[C@@H](C)[C@H](OC)c3ncc(Cl)cn3)n2C(CO)CO)n1 [Example 5.0, (1R,2S)-1-(5-chloro-2-pyrimidinyl)-N-(4-(2-hydroxy-1-(hydroxymethyl)ethyl)-5-(6-methoxy-2-pyridinyl)-4H-1,2,4-triazol-3-yl)-1-methoxy-2-propanesulfonamide] | 50 nM |
| COCC(COC)n1c(NS(=O)(=O)[C@@H](C)[C@H](OC)c2ncc(Cl)cn2)nnc1-c1cccc(OC)n1 [Example 6.0, (1R,2S)-1-(5-chloro-2-pyrimidinyl)-1-methoxy-N-(4-(2-methoxy-1-(methoxymethyl)ethyl)-5-(6-methoxy-2-pyridinyl)-4H-1,2,4-triazol-3-yl)-2-propanesulfonamide] | 0.3 nM |
| COc1cccc(-c2nnc(NS(=O)(=O)[C@@H](C)[C@H](OC)c3ncc(Cl)cn3)n2C2CC3(COC3)C2)n1 [Example 7.0, (1R,2S)-1-(5-chloro-2-pyrimidinyl)-1-methoxy-N-(5-(6-methoxy-2-pyridinyl)-4-(2-oxaspiro[3.3]hept-6-yl)-4H-1,2,4-triazol-3-yl)-2-propanesulfonamide] | 240 nM |
| COCC(COC)n1c(NS(=O)(=O)[C@@H](C)[C@H](OC)c2ncc(C)cn2)nnc1-c1ccccn1 [Example 8.0, (1R,2S)-N-(4-(1,3-dimethoxy-2-propanyl)-5-(2-pyridinyl)-4H-1,2,4-triazol-3-yl)-1-methoxy-1-(5-methyl-2-pyrimidinyl)-2-propanesulfonamide] | 19 nM |
| CCC(CC)n1c(NS(=O)(=O)[C@@H](C)[C@H](OC)c2ncc(Cl)cn2)nnc1-c1cccc(OC)n1 [Example 10.0, (1R,2S)-1-(5-chloro-2-pyrimidinyl)-1-methoxy-N-(5-(6-methoxy-2-pyridinyl)-4-(3-pentanyl)-4H-1,2,4-triazol-3-yl)-2-propanesulfonamide] | 0.32 nM |
| COc1cccc(-c2nnc(NS(=O)(=O)[C@@H](C)[C@H](OC)c3ncc(Cl)cn3)n2C(C)C)n1 [Example 11.0, (1R,2S)-1-(5-chloro-2-pyrimidinyl)-1-methoxy-N-(5-(6-methoxy-2-pyridinyl)-4-(2-propanyl)-4H-1,2,4-triazol-3-yl)-2-propanesulfonamide] | 6.4 nM |
| COCCn1c(NS(=O)(=O)[C@@H](C)[C@@H](OC(C)C)c2ncc(Cl)cn2)nnc1-c1cncc(C)c1 [Example 12.0, (1S,2S)-1-(5-chloro-2-pyrimidinyl)-N-(4-(2-methoxyethyl)-5-(5-methyl-3-pyridinyl)-4H-1,2,4-triazol-3-yl)-1-(2-propanyloxy)-2-propanesulfonamiide] | 120 nM |
| COCC(COC)n1c(NS(=O)(=O)[C@@H](C)[C@@H](OC(C)C)c2ncc(Cl)cn2)nnc1-c1cncc(C)c1 [Example 13.0, (1S,2S)-1-(5-chloro-2-pyrimidinyl)-N-(4-(1,3-dimethoxy-2-propanyl)-5-(5-methyl-3-pyridinyl)-4H-1,2,4-triazol-3-yl)-1-(2-propanyloxy)-2-propanesulfonamide] | 80 nM |
| COCC(COC)n1c(NS(=O)(=O)[C@@H](C)[C@H](OC)c2ncc(Cl)cn2)nnc1-c1ccccn1 [Example 14.0, (1R,2S)-1-(5-chloro-2-pyrimidinyl)-N-(4-(1,3-dimethoxy-2-propanyl)-5-(2-pyridinyl)-4H-1,2,4-triazol-3-yl)-1-methoxy-2-propanesulfonamiide] | 6.4 nM |
| COCC(COC)n1c(NS(=O)(=O)[C@@H](C)[C@H](OC)c2ncc(Cl)cn2)nnc1-c1cncc(C)c1 [Example 15.0, (1R,2S)-1-(5-chloro-2-pyrimidinyl)-N-(4-(1,3-dimethoxy-2-propanyl)-5-(5-methyl-3-pyridinyl)-4H-1,2,4-triazol-3-yl)-1-methoxy-2-propanesulfonamiide] | 30 nM |
| COCC(COC)n1c(NS(=O)(=O)[C@@H](C)[C@H](OC)c2ncc(Cl)cn2)nnc1-c1cccnc1 [Example 16.0] | 44 nM |
| COCC(COC)n1c(NS(=O)(=O)[C@@H](C)[C@H](C)c2cnc(C)cn2)nnc1-c1cccnc1 [Example 17.0, (2S,3R)-N-(4-(1,3-dimethoxy-2-propanyl)-5-(3-pyridinyl)-4H-1,2,4-triazol-3-yl)-3-(5-methyl-2-pyrazinyl)-2-butanesulfonamide] | 380 nM |
